Reference: US10004701B2, “Methods and compositions for treating infection” (UNIVERSITY OF ROCHESTER, priority 2012, dated 2018)
Structures can show the parent of a compound that is named as a salt. Where two headings read alike, the source gives them in different places.

Tests used:
Experiment in all cases: AK assay 384-well format, Prestwick library screening
[1] = system: S. aureus strain USA300-0114; format: cell-based, Staphylococcus aureus; settings: for fold induction at 50 µM: Staphylococcus aureus, USA300, 3 h
[2] = system: P. aeruginosa; format: cell-based, Pseudomonas aeruginosa; settings: for fold induction at 50 µM: Pseudomonas aeruginosa, 3 h
[3] = system: E. coli; format: cell-based, Escherichia coli; settings: for fold induction at 50 µM: Escherichia coli, 3 h
[4] = system: E. cloacae; format: cell-based, Enterobacter cloacae; settings: for fold induction at 50 µM: Enterobacter cloacae, 3 h
[5] = system: K. pneumoniae; format: cell-based, Klebsiella pneumoniae; settings: for fold induction at 50 µM: Klebsiella pneumoniae, 3 h
[6] = system: A. baumannii strain 98-37-09; format: cell-based, Acinetobacter baumannii; settings: for fold induction at 50 µM: Acinetobacter baumannii, 983709, 3 h
[7] = system: E. faecium; format: cell-based, Enterococcus faecium; settings: for fold induction at 50 µM: Enterococcus faecium, 3 h
[8] = 50 μM final drug concentration, cutoff for positive-scoring molecules 3-fold increase

In the case of `Cc1cc2c(C(C)C)c(O)c(O)c(C=O)c2c(O)c1-c1c(C)cc2c(C(C)C)c(O)c(O)c(C=O)c2c1O` [Gossypol], the fold induction at 50 µM ([1]; 50 μM final drug concentration, planktonic, […], read-out: AK-based Prestwick Library Screening Results, S. aureus (fold increase in extracellular AK activity)) is reported as 0.2, the fold induction at 50 µM ([2]; 50 μM final drug concentration, planktonic, […], read-out: AK-based Prestwick Library Screening Results, P. aeruginosa (fold increase in extracellular AK activity)) is reported as 0.5 and the fold induction at 50 µM ([3]; 50 μM final drug concentration, planktonic, […], read-out: AK-based Prestwick Library Screening Results, E. coli (fold increase in extracellular AK activity)) is reported as 0.6. For the same compound, the fold induction at 50 µM ([4]; 50 μM final drug concentration, planktonic, […], read-out: AK-based Prestwick Library Screening Results, E. cloacae (fold increase in extracellular AK activity)) was 1.5, the fold induction at 50 µM ([5]; 50 μM final drug concentration, planktonic, […], read-out: AK-based Prestwick Library Screening Results, K. pneumoniae (fold increase in extracellular AK activity)) was 0.3 and the fold induction at 50 µM ([6]; 50 μM final drug concentration, planktonic, […], read-out: AK-based Prestwick Library Screening Results, A. baumannii (fold increase in extracellular AK activity)) was 0.4. It also gave a fold induction at 50 µM ([7]; 50 μM final drug concentration, planktonic, […], read-out: AK-based Prestwick Library Screening Results, E. faecium (fold increase in extracellular AK activity)) of 1.3.

For `CC1(C)S[C@@H]2[C@H](NC(=O)[C@H](N)c3ccccc3)C(=O)N2[C@H]1C(=O)OC1OC(=O)c2ccccc21` (some centres unmarked) [Talampicillin hydrochloride], the fold induction at 50 µM ([1]; planktonic S. aureus, 50 μM final drug concentration, […], read-out: AK-based Prestwick library screening result, S. aureus (fold increase in extracellular AK activity)) was 1.2, the fold induction at 50 µM ([2]; planktonic P. aeruginosa, 50 μM final drug concentration, […], read-out: AK-based Prestwick library screening result, P. aeruginosa (fold increase in extracellular AK activity)) was 1.1 and the fold induction at 50 µM ([3]; planktonic E. coli, 50 μM final drug concentration, […], read-out: AK-based Prestwick library screening result, E. coli (fold increase in extracellular AK activity)) was 15.2. It also gave a fold induction at 50 µM ([4]; planktonic E. cloacae, 50 μM final drug concentration, […], read-out: AK-based Prestwick library screening result, E. cloacae (fold increase in extracellular AK activity)) of 1.6, a fold induction at 50 µM ([5]; planktonic K. pneumoniae, 50 μM final drug concentration, […], read-out: AK-based Prestwick library screening result, K. pneumoniae (fold increase in extracellular AK activity)) of 0.8 and a fold induction at 50 µM ([6]; planktonic A. baumannii, 50 μM final drug concentration, […], read-out: AK-based Prestwick library screening result, A. baumannii (fold increase in extracellular AK activity)) of 0.8. The fold induction at 50 µM ([7]; planktonic E. faecium, 50 μM final drug concentration, […], read-out: AK-based Prestwick library screening result, E. faecium (fold increase in extracellular AK activity)) was 1.4.

`COc1ccc(CCN2CCC(Nc3nc4ccccc4n3Cc3ccc(F)cc3)CC2)cc1` [Astemizole] was tested, and the fold induction at 50 µM ([1]; planktonic S. aureus, 50 μM final drug concentration, 384-well, cutoff for positive-scoring molecules 3-fold increase, read-out: AK-based Prestwick Library Screening Results: S. aureus (increase in extracellular AK activity)) was 2.2, the fold induction at 50 µM ([2]; planktonic P. aeruginosa, 50 μM final drug concentration, 384-well, cutoff for positive-scoring molecules 3-fold increase, read-out: AK-based Prestwick Library Screening Results: P. aeruginosa (increase in extracellular AK activity)) was 1 and the fold induction at 50 µM ([3]; planktonic E. coli, 50 μM final drug concentration, 384-well, cutoff for positive-scoring molecules 3-fold increase, read-out: AK-based Prestwick Library Screening Results: E. coli (increase in extracellular AK activity)) was 1.3. For the same compound, the fold induction at 50 µM ([4]; planktonic E. cloacae, 50 μM final drug concentration, 384-well, cutoff for positive-scoring molecules 3-fold increase, read-out: AK-based Prestwick Library Screening Results: E. cloacae (increase in extracellular AK activity)) was 1.6, the fold induction at 50 µM ([5]; planktonic K. pneumoniae, 50 μM final drug concentration, 384-well, cutoff for positive-scoring molecules 3-fold increase, read-out: AK-based Prestwick Library Screening Results: K. pneumoniae (increase in extracellular AK activity)) was 1.1 and the fold induction at 50 µM ([6]; planktonic A. baumannii, 50 μM final drug concentration, 384-well, cutoff for positive-scoring molecules 3-fold increase, read-out: AK-based Prestwick Library Screening Results: A. baumannii (increase in extracellular AK activity)) was 1.6. For the same compound, the fold induction at 50 µM ([7]; planktonic E. faecium, 50 μM final drug concentration, 384-well, cutoff for positive-scoring molecules 3-fold increase, read-out: AK-based Prestwick Library Screening Results: E. faecium (increase in extracellular AK activity)) was 1.

For `CNNCc1ccc(C(=O)NC(C)C)cc1` [Procarbazine hydrochloride], the fold induction at 50 µM ([1]; planktonic S. aureus, 50 μM final drug concentration, positive cutoff 3-fold increase, read-out: AK-based Prestwick library screening result, S. aureus (fold increase in extracellular AK activity)) was 1.1, the fold induction at 50 µM ([2]; planktonic P. aeruginosa, 50 μM final drug concentration, positive cutoff 3-fold increase, read-out: AK-based Prestwick library screening result, P. aeruginosa (fold increase in extracellular AK activity)) was 0.9 and the fold induction at 50 µM ([3]; planktonic E. coli, 50 μM final drug concentration, positive cutoff 3-fold increase, read-out: AK-based Prestwick library screening result, E. coli (fold increase in extracellular AK activity)) was 1. The fold induction at 50 µM ([4]; planktonic E. cloacae, 50 μM final drug concentration, positive cutoff 3-fold increase, read-out: AK-based Prestwick library screening result, E. cloacae (fold increase in extracellular AK activity)) was 1.7, the fold induction at 50 µM ([5]; planktonic K. pneumoniae, 50 μM final drug concentration, positive cutoff 3-fold increase, read-out: AK-based Prestwick library screening result, K. pneumoniae (fold increase in extracellular AK activity)) was 1.1 and the fold induction at 50 µM ([6]; planktonic A. baumannii, 50 μM final drug concentration, positive cutoff 3-fold increase, read-out: AK-based Prestwick library screening result, A. baumannii (fold increase in extracellular AK activity)) was 1.1. The fold induction at 50 µM ([7]; planktonic E. faecium, 50 μM final drug concentration, positive cutoff 3-fold increase, read-out: AK-based Prestwick library screening result, E. faecium (fold increase in extracellular AK activity)) was 1.

Compound `O=C1c2ccccc2C(=O)C1c1ccccc1` [Phenindione] has a fold induction at 50 µM ([1]; 50 μM final drug concentration, planktonic, cutoff for positive 3-fold increase, read-out: AK-based Prestwick Library Screening Results, S. aureus (fold increase in extracellular AK activity)) of 1.1, a fold induction at 50 µM ([2]; 50 μM final drug concentration, planktonic, cutoff for positive 3-fold increase, read-out: AK-based Prestwick Library Screening Results, P. aeruginosa (fold increase in extracellular AK activity)) of 0.9 and a fold induction at 50 µM ([3]; 50 μM final drug concentration, planktonic, cutoff for positive 3-fold increase, read-out: AK-based Prestwick Library Screening Results, E. coli (fold increase in extracellular AK activity)) of 1.2. The fold induction at 50 µM ([4]; 50 μM final drug concentration, planktonic, cutoff for positive 3-fold increase, read-out: AK-based Prestwick Library Screening Results, E. cloacae (fold increase in extracellular AK activity)) was 1.3, the fold induction at 50 µM ([5]; 50 μM final drug concentration, planktonic, cutoff for positive 3-fold increase, read-out: AK-based Prestwick Library Screening Results, K. pneumoniae (fold increase in extracellular AK activity)) was 1.1 and the fold induction at 50 µM ([6]; 50 μM final drug concentration, planktonic, cutoff for positive 3-fold increase, read-out: AK-based Prestwick Library Screening Results, A. baumannii (fold increase in extracellular AK activity)) was 1.1. For the same compound, the fold induction at 50 µM ([7]; 50 μM final drug concentration, planktonic, cutoff for positive 3-fold increase, read-out: AK-based Prestwick Library Screening Results, E. faecium (fold increase in extracellular AK activity)) was 0.9.

In the case of `CCN(CC)CCOC(=O)C(c1ccccc1)C1CCCCC1` (centres unmarked) [Drofenine hydrochloride], the fold induction at 50 µM ([1]; 50 μM final drug concentration, cutoff for positive-scoring molecules 3-fold increase, read-out: AK-based Prestwick Library Screening Results, S. aureus (fold increase in extracellular AK activity)) is reported as 1.5, the fold induction at 50 µM ([2]; 50 μM final drug concentration, cutoff for positive-scoring molecules 3-fold increase, read-out: AK-based Prestwick Library Screening Results, P. aeruginosa (fold increase in extracellular AK activity)) is reported as 1.2 and the fold induction at 50 µM ([3]; 50 μM final drug concentration, cutoff for positive-scoring molecules 3-fold increase, read-out: AK-based Prestwick Library Screening Results, E. coli (fold increase in extracellular AK activity)) is reported as 1.5. It also gave a fold induction at 50 µM ([4]; 50 μM final drug concentration, cutoff for positive-scoring molecules 3-fold increase, read-out: AK-based Prestwick Library Screening Results, E. cloacae (fold increase in extracellular AK activity)) of 1.5, a fold induction at 50 µM ([5]; 50 μM final drug concentration, cutoff for positive-scoring molecules 3-fold increase, read-out: AK-based Prestwick Library Screening Results, K. pneumoniae (fold increase in extracellular AK activity)) of 1.2 and a fold induction at 50 µM ([6]; 50 μM final drug concentration, cutoff for positive-scoring molecules 3-fold increase, read-out: AK-based Prestwick Library Screening Results, A. baumannii (fold increase in extracellular AK activity)) of 1.3. It also gave a fold induction at 50 µM ([7]; 50 μM final drug concentration, cutoff for positive-scoring molecules 3-fold increase, read-out: AK-based Prestwick Library Screening Results, E. faecium (fold increase in extracellular AK activity)) of 1.

`C[n+]1ccccc1/C=N/O` [Pralidoxime chloride] showed a fold induction at 50 µM ([1]; read-out: AK-based Prestwick Library Screening Results, S. aureus (fold increase in extracellular AK activity)) of 1.3, a fold induction at 50 µM ([2]; read-out: AK-based Prestwick Library Screening Results, P. aeruginosa (fold increase in extracellular AK activity)) of 1.2 and a fold induction at 50 µM ([3]; read-out: AK-based Prestwick Library Screening Results, E. coli (fold increase in extracellular AK activity)) of 1.3. It also gave a fold induction at 50 µM ([4]; read-out: AK-based Prestwick Library Screening Results, E. cloacae (fold increase in extracellular AK activity)) of 1.5, a fold induction at 50 µM ([5]; read-out: AK-based Prestwick Library Screening Results, K. pneumoniae (fold increase in extracellular AK activity)) of 1 and a fold induction at 50 µM ([6]; read-out: AK-based Prestwick Library Screening Results, A. baumannii (fold increase in extracellular AK activity)) of 1.4. For the same compound, the fold induction at 50 µM ([7]; read-out: AK-based Prestwick Library Screening Results, E. faecium (fold increase in extracellular AK activity)) was 1.

With `Cc1c(N(C)CS(=O)(=O)[O-])c(=O)n(-c2ccccc2)n1C.[Na+]` [Dipyrone] the “AK-based Prestwick Library Screening Results, S. aureus (fold increase in extracellular AK activity)” value [1, 8] was 1.4, the “AK-based Prestwick Library Screening Results, P. aeruginosa (fold increase in extracellular AK activity)” value [2, 8] was 1.1 and the “AK-based Prestwick Library Screening Results, E. coli (fold increase in extracellular AK activity)” value [3, 8] was 1.1. The “AK-based Prestwick Library Screening Results, E. cloacae (fold increase in extracellular AK activity)” value [4, 8] was 1.4, the “AK-based Prestwick Library Screening Results, K. pneumoniae (fold increase in extracellular AK activity)” value [5, 8] was 1.1 and the “AK-based Prestwick Library Screening Results, A. baumannii (fold increase in extracellular AK activity)” value [6, 8] was 1.1. The “AK-based Prestwick Library Screening Results, E. faecium (fold increase in extracellular AK activity)” value [7, 8] was 1.0.
